Our source for the IC50 values is ChEMBL document CHEMBL2157905, “Inhibition of therapeutically important polymerases with high affinity bis-intercalators” (Bioorg Med Chem Lett, 2012).

The structures appear in SMILES notation. Starred links: 1 amine or outer side, 2 acyl side, 3 side chain; linkers in the order of their positions; H or OH if unused. Positions of bridges follow the written chain, without caps; N, C: chain ends. Non-standard residues stand in square brackets, D forms with d. Residues, ends and D or L forms follow the SMILES beside them. Chains are numbered I, II in the order given. Actinocin(9to1) = Cc1c2oc3c(C)ccc(C(=O)[*:1])c3nc-2c(C(=O)[*:2])c(N)c1=O; NMeV = CN[C@H](C(=O)O)C(C)C; Sar = CNCC(=O)O

The nature of test [1]: Inhibition of telomerase in human HeLa cell extract by fluorescence-based assay. It counts as cell-free.
Test [2] is described as follows: Inhibition of partially purified telomerase by fluorescence-based assay.
The target of test [3] is T1, Human immunodeficiency virus type 1 reverse transcriptase (Human immunodeficiency virus 1, UniProt Q72547). The test can be described thus: Inhibition of HIV-1 reverse transcriptase using 0.05 ug/mL of Poly(rA).p(dT) (12 to 18) as substrate after 30 mins by single point PCR assay.
The target in test [4] is T1, Human immunodeficiency virus type 1 reverse transcriptase. Kind of test: Inhibition of HIV-1 reverse transcriptase using Poly(rA).p(dT) (12 to 18) as substrate after 30 mins by single point PCR assay.
Test [5] has the same target. The test can be described thus: Inhibition of HIV-1 reverse transcriptase using 25 ug/mL of Poly(rA).p(dT) (12 to 18) as substrate after 30 mins by single point PCR assay.
The target is the same in test [6]. Kind of test: Inhibition of HIV-1 reverse transcriptase using 25 ug/mL of Poly(rA).p(dT) (12 to 18) as substrate after 30 mins by single point PCR assay in presence of 340 uM base pair of calf thymus DNA.
Test [7] can be described thus: Inhibition of telomerase.
Test [8] concerns the target T1, Human immunodeficiency virus type 1 reverse transcriptase. Kind of test: Inhibition of HIV-1 reverse transcriptase using 0.5 ug/mL of Poly(rA).p(dT) (12 to 18) as substrate after 30 mins by single point PCR assay.

Take `NCCCC[C@H](NC(=O)CCNC(=O)C(N)CN)C(N)=O` (stereo not given in full): the results for the IC50 in test [1] and in test [2] were 600 nM and 100 nM, respectively. On to `NC(=O)[C@H](CCCCNC(=O)c1ccc(C[n+]2c(-c3ccccc3)c3cc(N)ccc3c3ccc(N)cc32)cc1)NC(=O)CCCNC(=O)[C@@H](N)CCCCNC(=O)c1ccc(C[n+]2c(-c3ccccc3)c3cc(N)ccc3c3ccc(N)cc32)cc1`, for which inhibition in test [3] was half-maximal at 10.5 nM (IC50). On to `Cc1c2oc3c(C)c(N)cc(C(=O)N[C@@H]4C(=O)N[C@H](C(C)C)C(=O)N5CCC[C@H]5C(=O)N(C)CC(=O)N(C)[C@@H](C(C)C)C(=O)O[C@@H]4C)c3nc-2c(C(=O)N[C@@H]2C(=O)N[C@H](C(C)C)C(=O)N3CCC[C@H]3C(=O)N(C)CC(=O)N(C)[C@@H](C(C)C)C(=O)O[C@@H]2C)c(N)c1=O`, for which the 50% inhibitory concentration (IC50) (usually the point on the concentration scale where inhibition reaches its midpoint) in test [4] (read-out: IC50) worked out at 93000 nM. Same read-out and setting: in the case of `CN(C)c1ccc2cc3ccc(N(C)C)cc3nc2c1` [ACRIDINE ORANGE] it was 200000 nM. Same read-out and setting: the value for `Cc1c2ccncc2c(C)c2c1[nH]c1ccccc12` [ELLIPTECINE] was 182000 nM. In test [3], `NC(=O)[C@H](CCCNC(=O)c1ccc(C[n+]2c(-c3ccccc3)c3cc(N)ccc3c3ccc(N)cc32)cc1)NC(=O)CCCCCNC(=O)[C@@H](N)CCCNC(=O)c1ccc(C[n+]2c(-c3ccccc3)c3cc(N)ccc3c3ccc(N)cc32)cc1` showed an IC50 of 4.9 nM. `Cc1c2oc3c(C)ccc(C(=O)N[C@@H]4C(=O)N[C@H](C(C)C)C(=O)N5CCC[C@H]5C(=O)N(C)CC(=O)N(C)[C@@H](C(C)C)C(=O)O[C@@H]4C)c3nc-2c(C(=O)N[C@@H]2C(=O)N[C@H](C(C)C)C(=O)N3CCC[C@H]3C(=O)N(C)CC(=O)N(C)[C@@H](C(C)C)C(=O)O[C@@H]2C)c(N)c1=O` [DACTINOMYCIN] (I: T[dV]P[Sar][NMeV] / II: T[dV]P[Sar][NMeV]; ester I:1-I:C, II:1-II:C; linker I:N-II:N via Actinocin(9to1)): the half-inhibitory concentration (IC50) in test [4] (read-out: IC50) came out at 270000 nM. Regarding `O=C(O)c1c2ccccc2nc2ccccc12`, the IC50 entry in test [4] was “Not Active”. Still for that read-out and setting: the value for `COc1ccc2nc3cc(Cl)ccc3c(N)c2c1` was “Not Active”. `Cc1cc2cc3cc(C)c(N)cc3nc2cc1N` [ACRIDINE YELLOW]: in test [4] (read-out: IC50), the IC50 was 32000 nM. With `Nc1ccc2c(c1)c(-c1ccccc1)[n+](CCCNCCNCCC[n+]1c(-c3ccccc3)c3cc(N)ccc3c3ccc(N)cc31)c1cc(N)ccc21`, the figures for the concentration for half-maximal inhibition (IC50) in test [5], in test [3] and in test [6] were 2300 nM, 10.8 nM and 8500 nM, respectively.

`NC(=O)C(CNC(=O)c1ccc(C[n+]2c(-c3ccccc3)c3cc(N)ccc3c3ccc(N)cc32)cc1)NC(=O)CCCCCNC(=O)[C@@H](N)CCCCNC(=O)c1ccc(C[n+]2c(-c3ccccc3)c3cc(N)ccc3c3ccc(N)cc32)cc1` (stereo not given in full) returned an IC50 in test [3] of 30.7 nM. On to `CC[n+]1c(-c2ccccc2)c2cc(N)ccc2c2ccc(N)cc21` [HOMIDIUM BROMIDE], for which the IC50 in test [4] (read-out: IC50) came out at 2000 nM. In the case of `CC[n+]1c(-c2ccccc2)c2cc(N)ccc2c2ccc(N)cc21` [HOMIDIUM], the IC50 came to 3300 nM in test [7], 2200 nM in test [5], 2100 nM in test [3] and 1800 nM in test [8].

`O=C(O)c1ccc2cc3ccccc3cc2c1`: the 50% inhibitory concentration (IC50) entry in test [4] is recorded as “Not Active”. The same measure, in the same setting: the value for `O=C(O)c1cccc2cc3ccccc3cc12` was “Not Active”. In the case of `CCOc1ccc2nc3cc(N)ccc3c(N)c2c1`, the IC50 in test [4] (read-out: IC50) amounted to 20000 nM.

With `CC[N+](C)(CC)CCC[n+]1c(-c2ccccc2)c2cc(N)ccc2c2ccc(N)cc21` [PROPIDIUM], the IC50 in test [4] (read-out: IC50) came to 3000 nM. On the same count and under the same terms, in the case of `COc1cccc2c1C(=O)c1c(O)c3c(c(O)c1C2=O)C[C@@](O)(C(C)=O)C[C@@H]3O[C@H]1C[C@H](N)[C@H](O)[C@H](C)O1` [DAUNORUBICIN] it was 139000 nM. As for `NC(=O)[C@H](CCCNC(=O)c1ccc(C[n+]2c(-c3ccccc3)c3cc(N)ccc3c3ccc(N)cc32)cc1)NC(=O)CCNC(=O)C(N)CNC(=O)c1ccc(C[n+]2c(-c3ccccc3)c3cc(N)ccc3c3ccc(N)cc32)cc1` (stereo not given in full), 9.2 nM corresponded to half-maximal inhibition in test [3] (IC50). Same read-out and setting: the value for `NC(=O)C(CNC(=O)c1ccc(C[n+]2c(-c3ccccc3)c3cc(N)ccc3c3ccc(N)cc32)cc1)NC(=O)[C@@H](N)CCCNC(=O)c1ccc(C[n+]2c(-c3ccccc3)c3cc(N)ccc3c3ccc(N)cc32)cc1` (stereo not given in full) was 22.3 nM. For `COc1ccc2nc3cc(Cl)ccc3c(NCCCNCCCCNCCCNc3c4ccc(Cl)cc4nc4ccc(OC)cc34)c2c1` [ACRIDINE DIMER], the 50% inhibitory concentration (IC50) worked out at 12900 nM in test [5], 220 nM in test [3] and 400 nM in test [8].
